According to US8536354B2, “Steroidal ligands and their use in gene switch modulation” (Intrexon Corporation, priority 2008, dated 2013):
Substitutions are numbered along the chain they refer to. Where two headings read alike, the source gives them in different places.

Key:
[1] = target: T1, wild-type CfEcR (GAL4-CfEcR-DEF with VP16-RXR-USP chimera) (Choristoneura fumiferana, UniProt O77255); test: Two-hybrid gene switch assay, luciferase reporter, wild-type CfEcR, mouse NIH3T3 cells
T1 sequence (O77255 219-541): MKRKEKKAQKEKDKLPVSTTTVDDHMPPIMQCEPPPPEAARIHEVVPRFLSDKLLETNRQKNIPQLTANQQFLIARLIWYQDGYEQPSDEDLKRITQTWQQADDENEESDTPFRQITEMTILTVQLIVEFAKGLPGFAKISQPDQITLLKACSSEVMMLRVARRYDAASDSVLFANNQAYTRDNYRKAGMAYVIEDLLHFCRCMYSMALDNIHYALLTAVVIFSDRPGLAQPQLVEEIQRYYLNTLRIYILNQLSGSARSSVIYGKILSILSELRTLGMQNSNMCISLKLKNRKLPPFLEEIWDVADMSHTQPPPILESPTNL
T1 sequence (P28702 1-533 partner): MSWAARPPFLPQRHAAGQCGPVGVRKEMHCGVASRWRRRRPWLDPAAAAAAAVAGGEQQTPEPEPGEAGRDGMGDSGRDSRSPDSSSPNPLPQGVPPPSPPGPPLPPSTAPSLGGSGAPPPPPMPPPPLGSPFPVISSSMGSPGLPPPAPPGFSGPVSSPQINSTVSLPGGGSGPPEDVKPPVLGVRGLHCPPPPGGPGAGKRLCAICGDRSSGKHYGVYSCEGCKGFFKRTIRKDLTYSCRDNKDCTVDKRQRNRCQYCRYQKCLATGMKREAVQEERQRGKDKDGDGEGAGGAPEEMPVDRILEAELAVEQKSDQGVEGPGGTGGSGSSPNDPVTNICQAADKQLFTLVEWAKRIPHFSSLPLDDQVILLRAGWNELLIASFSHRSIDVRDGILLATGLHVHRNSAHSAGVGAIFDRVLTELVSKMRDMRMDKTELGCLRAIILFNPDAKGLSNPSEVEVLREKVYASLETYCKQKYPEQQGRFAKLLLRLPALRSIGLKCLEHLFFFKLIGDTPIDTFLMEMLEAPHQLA

[2] = target: wild-type Drosophila melanogaster EcR (DmEcR; GAL4-EcR DEF with VP16-RXR-USP chimera) (Drosophila melanogaster, UniProt P34021); test: Two-hybrid gene switch assay, luciferase reporter, wild-type DmEcR, mouse NIH3T3 cells; assay type: cell-based
Sequence of wild-type Drosophila melanogaster EcR (DmEcR; GAL4-EcR DEF with VP16-RXR-USP chimera) (P34021 with tags, fused parts or gaps limits assumed): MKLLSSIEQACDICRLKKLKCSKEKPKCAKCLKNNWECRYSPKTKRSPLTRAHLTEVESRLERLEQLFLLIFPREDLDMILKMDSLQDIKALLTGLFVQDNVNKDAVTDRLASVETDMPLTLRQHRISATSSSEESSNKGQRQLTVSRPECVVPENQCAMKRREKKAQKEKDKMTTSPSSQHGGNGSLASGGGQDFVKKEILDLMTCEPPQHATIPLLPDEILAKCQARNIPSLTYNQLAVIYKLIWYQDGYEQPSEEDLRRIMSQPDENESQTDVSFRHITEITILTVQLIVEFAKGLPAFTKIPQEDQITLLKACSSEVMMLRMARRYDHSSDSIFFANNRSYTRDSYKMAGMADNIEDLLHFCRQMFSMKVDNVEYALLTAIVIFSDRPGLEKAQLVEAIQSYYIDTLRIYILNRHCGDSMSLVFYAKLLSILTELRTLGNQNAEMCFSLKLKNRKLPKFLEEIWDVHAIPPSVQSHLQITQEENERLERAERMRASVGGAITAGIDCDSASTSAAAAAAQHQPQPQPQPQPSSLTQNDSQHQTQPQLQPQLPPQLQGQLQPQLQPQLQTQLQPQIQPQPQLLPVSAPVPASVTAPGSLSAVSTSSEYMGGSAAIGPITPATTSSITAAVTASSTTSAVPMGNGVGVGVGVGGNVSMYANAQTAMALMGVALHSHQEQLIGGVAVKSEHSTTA

[3] = target: T2, BaEcR (GAL4-EcR DEF with VP16-RXR-USP chimera) (Bemisia tabaci, UniProt A0A6M3RDR8); test: Two-hybrid gene switch assay, luciferase reporter, BaEcR, mouse NIH3T3 cells; details: EC50, FIG. 14A/14B, GAL4-EcR(DEF) with VP16-RXR-USP chimera
T2 sequence (A0A6M3RDR8 115-530): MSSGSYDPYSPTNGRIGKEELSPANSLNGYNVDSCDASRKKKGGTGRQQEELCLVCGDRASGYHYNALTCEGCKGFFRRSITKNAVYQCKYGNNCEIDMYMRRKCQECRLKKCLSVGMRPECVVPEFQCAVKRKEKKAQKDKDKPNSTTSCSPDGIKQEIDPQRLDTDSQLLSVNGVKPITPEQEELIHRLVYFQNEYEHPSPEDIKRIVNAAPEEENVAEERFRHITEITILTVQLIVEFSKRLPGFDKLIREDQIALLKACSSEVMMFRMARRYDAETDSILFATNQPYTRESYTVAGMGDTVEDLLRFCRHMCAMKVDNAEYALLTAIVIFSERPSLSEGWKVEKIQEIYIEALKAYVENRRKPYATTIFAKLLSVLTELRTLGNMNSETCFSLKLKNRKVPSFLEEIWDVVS
T2 sequence (P28702 1-533 partner): T1 sequence (P28702 1-533 partner)

[4] = target: T3, MsEcR (GAL4-EcR DEF with VP16-RXR-USP chimera) (Manduca sexta, UniProt P49883); test: Two-hybrid gene switch assay, luciferase reporter, MsEcR, mouse NIH3T3 cells; details: EC50, FIG. 15, GAL4-EcR (DEF) / VP16-RXR-USP chimera
T3 sequence (P49883 1-556): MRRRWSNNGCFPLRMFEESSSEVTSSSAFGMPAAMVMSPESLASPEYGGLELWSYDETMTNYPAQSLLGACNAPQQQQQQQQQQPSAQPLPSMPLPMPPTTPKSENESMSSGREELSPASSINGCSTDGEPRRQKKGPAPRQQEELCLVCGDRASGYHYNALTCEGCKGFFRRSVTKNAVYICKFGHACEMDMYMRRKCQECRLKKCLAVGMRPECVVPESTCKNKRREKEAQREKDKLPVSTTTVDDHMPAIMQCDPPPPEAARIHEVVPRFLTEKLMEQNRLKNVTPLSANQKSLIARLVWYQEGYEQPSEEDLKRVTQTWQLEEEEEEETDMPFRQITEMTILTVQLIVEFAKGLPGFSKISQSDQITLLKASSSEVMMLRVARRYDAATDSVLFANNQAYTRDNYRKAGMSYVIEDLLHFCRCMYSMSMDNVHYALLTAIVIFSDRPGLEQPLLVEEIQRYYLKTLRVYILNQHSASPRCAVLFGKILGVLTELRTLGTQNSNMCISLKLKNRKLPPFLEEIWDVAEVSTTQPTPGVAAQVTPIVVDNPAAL
T3 sequence (P28702 1-533 partner): T1 sequence (P28702 1-533 partner)

[5] = target: T4, TmEcR (GAL4-EcR DEF with VP16-RXR partner) (Tenebrio molitor, UniProt O02035); test: Two-hybrid gene switch assay, luciferase reporter, TmEcR, mouse NIH3T3 cells
T4 sequence (O02035 194-491): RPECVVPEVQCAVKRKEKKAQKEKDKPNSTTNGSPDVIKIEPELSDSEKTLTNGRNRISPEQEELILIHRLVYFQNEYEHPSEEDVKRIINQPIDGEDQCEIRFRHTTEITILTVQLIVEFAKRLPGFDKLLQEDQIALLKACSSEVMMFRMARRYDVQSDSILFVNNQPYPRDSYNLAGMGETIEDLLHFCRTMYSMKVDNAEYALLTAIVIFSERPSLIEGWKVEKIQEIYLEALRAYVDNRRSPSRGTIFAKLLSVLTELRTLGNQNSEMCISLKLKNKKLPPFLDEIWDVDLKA
T4 sequence (P28704 1-520 partner): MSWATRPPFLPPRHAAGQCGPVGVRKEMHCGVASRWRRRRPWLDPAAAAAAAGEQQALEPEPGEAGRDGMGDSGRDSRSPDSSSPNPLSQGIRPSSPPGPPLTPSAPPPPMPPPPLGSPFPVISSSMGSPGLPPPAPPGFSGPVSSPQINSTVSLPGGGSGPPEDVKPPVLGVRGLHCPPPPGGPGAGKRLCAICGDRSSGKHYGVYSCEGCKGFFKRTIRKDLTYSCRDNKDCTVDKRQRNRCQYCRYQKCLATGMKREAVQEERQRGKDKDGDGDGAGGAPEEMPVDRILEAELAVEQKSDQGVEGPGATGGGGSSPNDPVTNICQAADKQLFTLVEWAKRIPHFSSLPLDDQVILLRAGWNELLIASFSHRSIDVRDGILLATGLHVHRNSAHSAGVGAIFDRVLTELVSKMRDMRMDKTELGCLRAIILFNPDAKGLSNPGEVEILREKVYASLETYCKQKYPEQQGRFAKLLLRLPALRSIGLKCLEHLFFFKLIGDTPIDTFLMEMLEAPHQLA

[6] = target: T5, wild-type Choristoneura fumiferana EcR (CfEcR-DEF) (Choristoneura fumiferana, UniProt O77255); test: Two-hybrid gene switch assay, wild-type CfEcR-DEF (GAL4-EcR / VP16-RXR-USP chimera, luciferase) in NIH3T3 cells; details: for Emax: NIH3T3, 48 h, read-out: rel max FI (diacylhydrazine), CF
T5 sequence (O77255 219-541): T1 sequence (O77255 219-541) with A230E
T5 sequence (P28702 299-449 partner): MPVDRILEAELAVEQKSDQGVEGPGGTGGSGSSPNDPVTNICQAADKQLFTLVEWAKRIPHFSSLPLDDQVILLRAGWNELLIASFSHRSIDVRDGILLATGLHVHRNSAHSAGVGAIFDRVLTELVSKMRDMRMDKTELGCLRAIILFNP

[7] = target: wild-type Aedes aegypti EcR (AaEcR; GAL4-EcR DEF with VP16-RXR-USP chimera) (Aedes aegypti, UniProt P49880); test: Two-hybrid gene switch assay, luciferase reporter, wild-type AaEcR, mouse NIH3T3 cells; assay type: cell-based
Sequence of wild-type Aedes aegypti EcR (AaEcR; GAL4-EcR DEF with VP16-RXR-USP chimera) (P49880 with tags, fused parts or gaps limits assumed, change not shown): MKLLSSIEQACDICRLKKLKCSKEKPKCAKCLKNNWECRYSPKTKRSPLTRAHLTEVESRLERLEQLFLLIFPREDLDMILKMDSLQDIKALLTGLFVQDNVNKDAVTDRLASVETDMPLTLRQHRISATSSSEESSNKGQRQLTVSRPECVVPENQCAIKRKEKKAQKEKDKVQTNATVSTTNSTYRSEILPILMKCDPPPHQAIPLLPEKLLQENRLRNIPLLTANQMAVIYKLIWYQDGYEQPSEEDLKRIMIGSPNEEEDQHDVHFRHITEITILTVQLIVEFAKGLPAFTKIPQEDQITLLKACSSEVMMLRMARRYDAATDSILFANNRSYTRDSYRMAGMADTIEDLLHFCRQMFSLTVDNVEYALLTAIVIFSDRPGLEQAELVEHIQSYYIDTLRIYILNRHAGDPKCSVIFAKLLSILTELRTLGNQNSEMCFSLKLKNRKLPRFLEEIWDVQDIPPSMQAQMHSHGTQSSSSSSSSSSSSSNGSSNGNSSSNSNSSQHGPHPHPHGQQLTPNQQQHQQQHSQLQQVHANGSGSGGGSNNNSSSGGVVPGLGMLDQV

CO[C@H]1CC2(C)C(C[C@H]1OC)C(=O)C=C1C2CCC2(C)C([C@@](C)(O)[C@@H](CCC(C)(C)O)OC)CC[C@@]12OC (stereo partly shown) [Compound 15]
EC50 [1]: > 33 µM

CO[C@H]1C[C@@]2(C)[C@@H](C[C@H]1O)C(=O)C=C1[C@@H]2CC[C@]2(C)[C@@H]([C@@](C)(O)[C@@H](CCC(C)C)OC)CC[C@@]12O [Compound 19]
EC50 [1]: 27.8 µM

CO[C@H](CCC(C)(C)OC)[C@](C)(O)[C@H]1CC[C@@]2(O)C3=CC(=O)[C@@H]4C[C@@H](O)[C@@H](O)C[C@]4(C)[C@H]3CC[C@]12C [Compound 14]
EC50 [1]: > 33 µM | EC50 ([2]; EC50, FIG. 8): 1.58 µM

CC(C)CC[C@@H](O)[C@](C)(O)[C@H]1CC[C@@]2(O)C3=CC(=O)[C@@H]4C[C@@H](O)[C@@H](O)C[C@]4(C)[C@H]3CC[C@]12C [PoA, ponasterone A, reference compound]
EC50 [3]: 0.031 µM | EC50 [4]: 0.17 µM | EC50 ([5]; EC50, FIG. 14A/14B, GAL4-EcR(DEF)): 0.044 µM | EC50 ([5]; EC50, FIG. 16, GAL4-EcR (DEF)): 0.07 µM | EC50 [1]: 8.42 µM | EC50 ([2]; EC50, FIG. 4C): 0.113 µM | EC50 ([2]; EC50, FIG. 16, GAL4-EcR (DEF) / VP16-RXR-USP chimera): 0.84 µM

COC(C)(C)CCC(O)C(C)(O)C1CCC2(O)C3=CC(=O)C4CC(O)C(O)CC4(C)C3CCC12C (stereo not shown) [20E-25-methyl ether]
EC50 [6]: > 33 µM | Emax [6]: 0.13%

C=CCO[C@H](CCC(C)(C)O)[C@](C)(O)C1CC[C@@]2(O)C3=CC(=O)C4C[C@@H](O)[C@@H](O)CC4(C)C3CCC12C (stereo partly shown) [Compound 7]
EC50 [1]: > 33 µM | EC50 ([2]; EC50, FIG. 8): ~5 µM

CC(C)(O)CC[C@@H](OCc1ccccc1)[C@](C)(O)C1CC[C@@]2(O)C3=CC(=O)C4C[C@@H](O)[C@@H](O)CC4(C)C3CCC12C (stereo partly shown) [Compound 9]
EC50 [1]: > 33 µM

CC(C)(O)CC[C@@H](O)[C@](C)(O)[C@H]1CC[C@@]2(O)C3=CC(=O)[C@@H]4C[C@@H](O)[C@@H](O)C[C@]4(C)[C@H]3CC[C@]12C [Compound 25]
EC50 ([7]; FIG. 8, read-out: EC50): 0.93 µM

CCCCO[C@H](CCC(C)(C)O)[C@](C)(O)C1CC[C@@]2(O)C3=CC(=O)C4C[C@@H](O)[C@@H](O)CC4(C)C3CCC12C (stereo partly shown) [Compound 8]
EC50 [1]: > 33 µM | EC50 ([7]; FIG. 8, read-out: EC50): 2.72 µM | EC50 ([2]; EC50, FIG. 8): 14.6 µM

CO[C@H](CCC(C)C)[C@](C)(O)[C@H]1CC[C@@]2(OC)C3=CC(=O)[C@@H]4C[C@@H](O)[C@@H](O)C[C@]4(C)[C@H]3CC[C@]12C [Compound 21]
EC50 [1]: > 33 µM

CC(C)(O)CC[C@@H](O)[C@](C)(O)[C@H]1CC[C@@]2(O)C3=CC(=O)[C@]4(O)C[C@@H](O)[C@@H](O)C[C@]4(C)[C@H]3CC[C@]12C [polypodine B, reference compound]
EC50 ([6]; wt-CfEcR gene switch, NIH3T3, Example One): ~12 µM

CO[C@@]12CC[C@H]([C@@](C)(O)[C@H](O)CCC(C)C)[C@@]1(C)CC[C@H]1C2=CC(=O)[C@@H]2C[C@@H](O)[C@@H](O)C[C@@]21C [Compound 17]
EC50 [1]: ~20 µM

COC(C)(C)CC[C@@H](O)[C@](C)(O)[C@H]1CC[C@@]2(O)C3=CC(=O)[C@@H]4C[C@@H](O)[C@@H](O)C[C@]4(C)[C@H]3CC[C@]12C [Compound 10]
EC50 ([7]; EC50, FIG. 8): ~0.3 µM | EC50 ([2]; EC50, FIG. 8): 5.45 µM

CCO[C@H](CCC(C)(C)O)[C@](C)(O)C1CC[C@@]2(O)C3=CC(=O)C4C[C@@H](O)[C@@H](O)CC4(C)C3CCC12C (stereo partly shown) [20E-22-ethyl ether]
Emax [6]: 77%

CCCO[C@H](CCC(C)(C)O)[C@](C)(O)C1CC[C@@]2(O)C3=CC(=O)C4C[C@@H](O)[C@@H](O)CC4(C)C3CCC12C (stereo partly shown) [20E-22-n-propyl ether]
EC50 [6]: > 33 µM | Emax [6]: 0.5%

CO[C@H](CCC(C)C)[C@](C)(O)C1CC[C@@]2(O)C3=CC(=O)C4C[C@@H](O)[C@@H](O)CC4(C)C3=CCC12C (stereo partly shown) [Compound 22]
EC50 [1]: 13.7 µM

CC(C)CCC(O)C(C)(O)C1CCC2(O)C3=CC(=O)C4(O)CC(O)C(O)CC4(C)C3C(O)CC12C (stereo not shown) [Compound 28]
EC50 ([2]; EC50, FIG. 8): 0.112 µM

CC(C(O)CCC(C)(C)O)C1CCC2(O)C3=CC(=O)C4CC(O)C(O)CC4(C)C3CCC12C (stereo not shown) [Compound 24]
EC50 [1]: > 33 µM
